Data on one compound can be found in patent EP2805714B1, “STABLE PHARMACEUTICAL COMPOSITION COMPRISING AMORPHOUS ROSUVASTATIN CALCIUM” (Antibiotice S.A., priority 2013, dated 2014).

This series in a line: Stability test according to ICH guidelines, related substances by in-house HPLC method. In kind it is physicochemical. As to conditions: rosuvastatin calcium amorphous active substance (raw material). Here is the method:
We performed stability tests on these tablet compositions, according to the method described in ICH guidelines. The tablets were packed in opaque OPA/Al/PVC-Al blisters with very low oxygen and humidity transmission rates. Using a HPLC in house method, we measured the level of lactone and total impurities formed after a period of storage of 12 months at 25°C/60%RH (normal conditions, A1) and of 6 months at 40°C/[…]. The results were compared with those obtained for the tablets at the moment of release (TO) and those obtained for the rosuvastatin calcium amorphous active substance (Table 2). Table 2. Related substances values for the tested formulations

As for `CC(C)c1nc(N(C)S(C)(=O)=O)nc(-c2ccc(F)cc2)c1/C=C/[C@@H](O)C[C@@H](O)CC(=O)[O-].CC(C)c1nc(N(C)S(C)(=O)=O)nc(-c2ccc(F)cc2)c1/C=C/[C@@H](O)C[C@@H](O)CC(=O)[O-].[Ca+2]` [RC amorphous, bis [(E)-7-[4-(4-fluorophenyl)-6-isopropyl-2-[methyl(methylsulfonyl)amino]pyrimidin-5-yl]-(3R,5S)-dihydroxyhept-6-enoic acid] calcium salt], the “Lactone, %” value amounted to 0.010% and the “Total impurities, %” value worked out at 0.150%.
